Measured values published in patent publication US20070128217A1 (priority 2003, published 2007).

Key:
[1] = tested on: recombinant human anti-SARS-CoV antibody 03-018; type: binding; design: Binding of antibody 03-018 to linear peptides of the N protein of SARS-CoV Urbani / Binding of antibody 03-018 to looped/cyclic peptides of the N protein of SARS-CoV Urbani: unit not given here
[2] = tested on: control sera (pooled serum of ten healthy LUMC hospital workers; commercial negative donor pooled serum from the Dutch bloodbank); type: binding, human; design: Binding of Control serum LUMC to linear peptides / Binding of Control serum Blood-bank to linear peptides / Binding of Control serum LUMC to looped peptides / Binding of Control Serum Blood-Bank to Looped peptides / Binding of Control serum LUMC to linear peptides of the protein M of SARS-CoV Urbani / Binding of Control serum Blood-bank to linear peptides of the protein M of SARS-CoV Urbani / Binding of Control serum LUMC to looped peptides of the protein M of SARS-CoV Urbani / Binding of Control Serum Blood-Bank to Looped peptides of the protein M of SARS-CoV Urbani: unit not given here
[3] = tested on: antibodies in sera from SARS patients (sera 1a, 1b, 2, 6, 37, 62, London, SARS-yellow, SARS-green); type: binding, human; design: Binding of serum 6 to linear peptides of protein X1 of SARS-CoV Urbani / Binding of serum 37 to linear peptides of protein X1 of SARS-CoV Urbani / Binding of serum 6 to looped/cyclic peptide (PEPSCAN-ELISA) / Binding of serum 37 to looped/cyclic peptide (PEPSCAN-ELISA) / Binding of serum 37 to looped/cyclic peptides of protein X1 of SARS-CoV Urbani / Binding of serum 6 to linear peptides of protein X2 / Binding of serum 37 to linear peptides of protein X2 / Binding of serum 37 to looped/cyclic peptides of protein X2 of SARS-CoV Urbani / Binding of serum 6 to linear peptides of protein M of SARS-CoV Urbani / Binding of serum 37 to linear peptides of protein M of SARS-CoV Urbani / Binding of serum 6 to looped/cyclic peptides of protein M of SARS-CoV Urbani / Binding of serum 37 to looped/cyclic peptides of protein M of SARS-CoV Urbani / Binding of serum 6 to linear peptides of protein X3 of SARS-CoV Urbani / Binding of serum 37 to linear peptides of protein X3 of SARS-CoV Urbani / Binding of serum 37 to looped/cyclic peptides of protein X3 of SARS-CoV Urbani / Binding of serum 6 to linear peptides of protein X4 of SARS-CoV Urbani / Binding of serum 37 to linear peptides of protein X4 of SARS-CoV Urbani / Binding of serum 37 to looped/cyclic peptides of protein X4 of SARS-CoV Urbani / Binding of serum 6 to linear peptides of protein X5 of SARS-CoV Urbani / Binding of serum 37 to linear peptides of protein X5 of SARS-CoV Urbani / Binding of serum 37 to looped/cyclic peptides of protein X5 of SARS-CoV Urbani / Binding of serum 6 to linear peptides of protein N of SARS-CoV Urbani / Binding of serum 37 to linear peptides of protein N of SARS-CoV Urbani / Binding of serum 6 to linear peptide (PEPSCAN-ELISA) / Binding of serum 1a to looped/cyclic peptides of protein N of SARS-CoV Urbani / Binding of serum 1b to looped/cyclic peptides of protein N of SARS-CoV Urbani / Binding of serum 2 to looped/cyclic peptides of protein N of SARS-CoV Urbani / Binding of serum 6 to looped/cyclic peptides of protein N of SARS-CoV Urbani / Binding of serum 37 to looped/cyclic peptides of protein N of SARS-CoV Urbani / Binding of serum 62 to looped/cyclic peptides of protein N of SARS-CoV Urbani / Binding of serum London to looped/cyclic peptides of protein N of SARS-CoV Urbani / Binding of serum SARS-green to looped/cyclic peptides of protein N of SARS-CoV Urbani: unit not given here
[4] = tested on: rabbit serum obtained by immunizing a rabbit with the SARS-CoV strain Frankfurt 1; type: binding; design: Binding of a rabbit serum to linear peptides / Binding of a rabbit serum to looped peptides / Rabbit serum linear peptides / Rabbit serum looped peptides / Binding of a rabbit serum to linear peptides of protein N of SARS-CoV Urbani (Rabbit serum linear peptides) / Binding of a rabbit serum to looped/cyclic peptides of protein N of SARS-CoV Urbani (Rabbit serum looped peptides): unit not given here

Sequence	Binding of antibody 03-018 to linear peptides of the N protein of SARS-CoV Urbani [1]	Binding of antibody 03-018 to looped/cyclic peptides of the N protein of SARS-CoV Urbani [1]	Binding of Control Serum Blood-Bank to Looped peptides [2]	Binding of Control serum Blood-bank to linear peptides [2]	Binding of Control serum LUMC to linear peptides [2]	Binding of Control serum LUMC to looped peptides [2]	Binding of serum 1a to linear peptide (PEPSCAN-ELISA) [3]	Binding of serum 1a to looped/cyclic peptides of protein N of SARS-CoV Urbani [3]	Binding of serum 1b to linear peptide (PEPSCAN-ELISA) [3]	Binding of serum 1b to looped/cyclic peptides of protein N of SARS-CoV Urbani [3]	Binding of serum 2 to linear peptide (PEPSCAN-ELISA) [3]	Binding of serum 2 to looped/cyclic peptides of protein N of SARS-CoV Urbani [3]	Binding of serum 6 to looped/cyclic peptides of protein N of SARS-CoV Urbani [3]	Binding of serum 37 to looped/cyclic peptides of protein N of SARS-CoV Urbani [3]	Binding of serum 62 to looped/cyclic peptides of protein N of SARS-CoV Urbani [3]	Binding of serum London to looped/cyclic peptides of protein N of SARS-CoV Urbani [3]	Binding of serum SARS-green to looped/cyclic peptides of protein N of SARS-CoV Urbani [3]	Binding of serum SARS-yellow to looped/cyclic peptides of protein N of SARS-CoV Urbani [3]	Binding of a rabbit serum to linear peptides of protein N of SARS-CoV Urbani (Rabbit serum linear peptides) [4]	Binding of a rabbit serum to looped/cyclic peptides of protein N of SARS-CoV Urbani (Rabbit serum looped peptides) [4]	other results
RLNQLESKVSGKGQQ	0.1	0.2	0.6	0.8	0.7	0.7	0.3	0.4	0.2	0.3	0.3	0.5	0.4	0.6	0.7	0.4	0.4	0.8	0.2	0.6	Binding of serum 6 to linear peptide (PEPSCAN-ELISA) [3]: 0.2; Binding of serum 37 to linear peptide (PEPSCAN-ELISA) [3]: 0.7; Binding of serum 62 to linear peptide (PEPSCAN-ELISA) [3]: 0.9; Binding of serum London to linear peptide (PEPSCAN-ELISA) [3]: 0.6; Binding of serum SARS-green to linear peptide (PEPSCAN-ELISA) [3]: 0.4; Binding of serum SARS-yellow to linear peptide (PEPSCAN-ELISA) [3]: 0.7
TQHGKEELRFPRGQG	0.1	0.2	0.6	0.9	0.8	0.6		0.3		0.2		0.3	0.2	0.5	0.3	0.4	0.2	0.4	0.1	0.3	Binding of serum 1a to linear peptides of protein N of SARS-CoV Urbani [3]: 0.3; Binding of serum 1b to linear peptides of protein N of SARS-CoV Urbani [3]: 0.2; Binding of serum 2 to linear peptides of protein N of SARS-CoV Urbani [3]: 0.3; Binding of serum 6 to linear peptides of protein N of SARS-CoV Urbani [3]: 0.2; Binding of serum 37 to linear peptides of protein N of SARS-CoV Urbani [3]: 0.7; Binding of serum 62 to linear peptides of protein N of SARS-CoV Urbani [3]: 0.8; Binding of serum London to linear peptides of protein N of SARS-CoV Urbani [3]: 0.5; Binding of serum SARS-green to linear peptides of protein N of SARS-CoV Urbani [3]: 0.4; Binding of serum SARS-yellow to linear peptides of protein N of SARS-CoV Urbani [3]: 0.6
TDEAQPLPQRQKKQP	0.1	0.1						0.2		0.0		0.2	0.1	0.1	0.0	0.1	0.0	0.1	0.1	0.0	Control Serum Blood-Bank Looped peptides [2]: 0.5; Control serum Blood-bank linear peptides [2]: 0.7; Control serum LUMC linear peptides [2]: 0.6; Control serum LUMC looped peptides [2]: 0.2; Binding of serum 1a to linear peptides of protein N of SARS-CoV Urbani [3]: 0.2; Binding of serum 1b to linear peptides of protein N of SARS-CoV Urbani [3]: 0.2; Binding of serum 2 to linear peptides of protein N of SARS-CoV Urbani [3]: 0.3; Binding of serum 6 to linear peptides of protein N of SARS-CoV Urbani [3]: 0.2; Binding of serum 37 to linear peptides of protein N of SARS-CoV Urbani [3]: 0.7; Binding of serum 62 to linear peptides of protein N of SARS-CoV Urbani [3]: 0.7; Binding of serum London to linear peptides of protein N of SARS-CoV Urbani [3]: 1.2; Binding of serum SARS-green to linear peptides of protein N of SARS-CoV Urbani [3]: 0.7; Binding of serum SARS-yellow to linear peptides of protein N of SARS-CoV Urbani [3]: 1.0
GGGETALALLLLDRL	0.1	0.2	0.7	0.5	0.6	0.8	0.2	0.4	0.1	0.3	0.1	0.5	0.2	0.8	0.7	0.4	0.3	0.7	0.1	0.7	Binding of serum 6 to linear peptide (PEPSCAN-ELISA) [3]: 0.1; Binding of serum 37 to linear peptide (PEPSCAN-ELISA) [3]: 0.7; Binding of serum 62 to linear peptide (PEPSCAN-ELISA) [3]: 0.5; Binding of serum London to linear peptide (PEPSCAN-ELISA) [3]: 0.4; Binding of serum SARS-green to linear peptide (PEPSCAN-ELISA) [3]: 0.2; Binding of serum SARS-yellow to linear peptide (PEPSCAN-ELISA) [3]: 0.6
